Measurements taken from patent US12162858B2, “Quinoline derivatives as inhibitors of AXL/MER RTK and CSF1R” (QURIENT CO., LTD., priority 2018, dated 2024).

What was measured:
CSF1R (M-NFS-60 cells) = test: Cell Titer-Glo viability assay using M-NFS-60 cells; type: cell-based; conditions: Mus musculus, read-out: Cellular CSF1R activity by M-NFS-60 viability assay (IC50 activity range)
Method in brief: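 M-NFS-60 cells grown with 62 ng/ml recombinant human M-CSF, seeded at 2×10^5 cells/well and incubated at 37 °C/5% CO2. Compounds given as 3-fold serial dilutions (10 doses); viability read by CellTiter-Glo luminescence, sigmoidal dose-response fit.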

CSF1R = CSF1R (Homo sapiens, UniProt P07333); test: Cellular CSF1R inhibition ELISA (p-CSF1R, M-CSF-induced) using THP-1 cells; type: cell-based; design: THP-1 cells act as a model for human monocytes; endogenous in cells; host or cells: THP-1
Method in brief: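 THP-1 cells (2×10^5/well, RPMI/10% FBS) were treated with compound, 10 doses in 3-fold steps, for 24 h at 37 °C in 0.2% DMSO final. They were then stimulated 5 min with human M-CSF (10 ng/ml final) and lysed. p-CSF1R was read by sandwich ELISA (HRP/TMB), with a sigmoidal dose-response fit.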

Chain of CSF1R (P07333 20-972): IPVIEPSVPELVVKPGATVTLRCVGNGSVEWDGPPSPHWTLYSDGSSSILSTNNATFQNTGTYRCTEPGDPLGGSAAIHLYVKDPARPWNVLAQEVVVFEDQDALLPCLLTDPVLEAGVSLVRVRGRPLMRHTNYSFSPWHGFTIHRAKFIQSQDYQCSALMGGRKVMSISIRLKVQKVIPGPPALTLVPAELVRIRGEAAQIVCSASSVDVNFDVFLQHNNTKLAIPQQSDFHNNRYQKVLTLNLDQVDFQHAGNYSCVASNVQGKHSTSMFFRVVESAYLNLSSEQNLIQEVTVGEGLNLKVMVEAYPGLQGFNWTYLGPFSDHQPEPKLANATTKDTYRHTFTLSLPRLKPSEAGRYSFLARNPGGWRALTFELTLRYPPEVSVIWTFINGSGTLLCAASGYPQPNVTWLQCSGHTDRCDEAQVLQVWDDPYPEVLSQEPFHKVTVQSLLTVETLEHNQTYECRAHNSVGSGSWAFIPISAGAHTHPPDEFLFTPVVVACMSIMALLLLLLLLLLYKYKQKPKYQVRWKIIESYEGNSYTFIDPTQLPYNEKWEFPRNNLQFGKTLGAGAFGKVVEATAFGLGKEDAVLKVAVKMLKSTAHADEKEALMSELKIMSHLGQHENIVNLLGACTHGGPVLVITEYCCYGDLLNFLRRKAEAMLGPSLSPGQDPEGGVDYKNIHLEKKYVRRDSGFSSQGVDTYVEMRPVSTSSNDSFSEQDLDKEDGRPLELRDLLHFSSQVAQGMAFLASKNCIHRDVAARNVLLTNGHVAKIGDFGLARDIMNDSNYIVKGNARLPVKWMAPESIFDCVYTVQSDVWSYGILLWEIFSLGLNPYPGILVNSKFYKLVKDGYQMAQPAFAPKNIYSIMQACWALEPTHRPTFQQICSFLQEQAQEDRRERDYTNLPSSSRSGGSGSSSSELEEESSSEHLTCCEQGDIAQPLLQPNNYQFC

Row | SMILES | IC50 (CSF1R) | IC50 (CSF1R (M-NFS-60 cells))
1 | CCCn1cc(OCC(F)(F)F)c(C(=O)Nc2ccc(Oc3ccnc4cc(OC)c(OC)cc34)c(F)c2)n1 [Compound 25] | 500 to 1000 nM | 1000 to 10000 nM
2 | COc1cc2nccc(Oc3ccc(NC(=O)c4nn(CCOC5CCC5)cc4OCC(F)(F)F)nc3)c2cc1OC [Compound 65] | < 500 nM | 1000 to 10000 nM
3 | COCCn1cc(OCC(F)(F)F)c(C(=O)Nc2ccc(Oc3ccnc4cc(OC)c(OC)cc34)cc2)n1 [Compound 61] | ≥ 1000 nM | 1000 to 10000 nM
4 | COc1cc2nccc(Oc3ccc(NC(=O)c4nn(CCN)cc4OCC(F)(F)F)c(F)c3)c2cc1OC [Compound 75] | ≥ 1000 nM | 1000 to 10000 nM
5 | COc1cc2nccc(Oc3ccc(NC(=O)c4nn(CC(C)O)cc4OCC(F)(F)F)nc3)c2cc1OC (stereo not drawn) [Compound 17] | < 500 nM | < 1000 nM
6 | COc1cc2nccc(Oc3ccc(NC(=O)c4nn(C)cc4OCC(F)(F)F)cc3C)c2cc1OC [Compound 37] | < 500 nM | < 1000 nM
7 | COc1cc2nccc(Oc3ccc(NC(=O)c4nn(CC5CCCC5)cc4OCC(F)(F)F)nc3)c2cc1OC [Compound 71] | < 500 nM | 1000 to 10000 nM
8 | COc1cc2nccc(Oc3ccc(NC(=O)c4nn(C[C@H](C)O)cc4OCC(F)(F)F)nc3)c2cc1OC [Compound 30] | < 500 nM | < 1000 nM
9 | CCn1nc(C(=O)Nc2ccc(Oc3ccnc4cc(OC)c(OC)cc34)cn2)c(OCC(F)(F)F)c1C [Compound 1] | < 500 nM | < 1000 nM
10 | COc1cc2nccc(Oc3ccc(NC(=O)c4nn(CC(C)O)cc4OCC(F)F)nc3)c2cc1OC (stereo not drawn) [Compound 175] | < 500 nM | < 1000 nM
11 | COc1cc2nccc(Oc3ccc(NC(=O)c4nn(C5CCOC5)cc4OCC(F)(F)F)cc3)c2cc1OC (stereo not drawn) [Compound 62] | ≥ 1000 nM | 1000 to 10000 nM
12 | COc1cc2nccc(Oc3ccc(NC(=O)c4nn(CC5CCNC5)cc4OCC(F)(F)F)nc3)c2cc1OC (stereo not drawn) [Compound 72] | < 500 nM | 1000 to 10000 nM
13 | COc1cc2nccc(Oc3ccc(NC(=O)c4nn(CCO)cc4OCC(F)(F)F)nc3)c2cc1OC [Compound 67] | < 500 nM | 1000 to 10000 nM
14 | COc1cc2nccc(Oc3ccc(NC(=O)c4nn(CCO)cc4OCC(F)(F)F)c(F)c3)c2cc1OC [Compound 46] | 500 to 1000 nM | 1000 to 10000 nM
15 | CCCn1cc(OC(C)C)c(C(=O)Nc2ccc(Oc3ccnc4cc(OC)c(OC(F)(F)F)cc34)c(F)c2)n1 [Compound 35] | ≥ 1000 nM | 1000 to 10000 nM
16 | CCCn1cc(N(C)CC2CCOCC2)c(C(=O)Nc2ccc(Oc3ccnc4cc(OC)c(OC)cc34)cn2)n1 [Compound 34] | ≥ 1000 nM | 1000 to 10000 nM
17 | CCCn1cc(OCC(F)(F)F)c(C(=O)Nc2ccc(Oc3ccnc4cc(OC)c(OC)cc34)c(C)c2)n1 [Compound 26] | < 500 nM | 1000 to 10000 nM
18 | COc1cc2nccc(Oc3ccc(NC(=O)c4nn(CC(C)C)cc4OCC(F)(F)F)cc3C)c2cc1OC [Compound 58] | ≥ 1000 nM | 1000 to 10000 nM
19 | COc1cc2nccc(Oc3ccc(NC(=O)c4nc(CCC(F)(F)F)oc4CCC4CCC4)nc3)c2cc1OC [Compound 176] | ≥ 1000 nM | 1000 to 10000 nM
20 | CCCCn1cc(OCC(F)(F)F)c(C(=O)Nc2ccc(Oc3ccnc4cc(OC)c(OC)cc34)cn2)n1 [Compound 36] | < 500 nM | < 1000 nM
21 | CCCn1cc(OCCF)c(C(=O)Nc2ccc(Oc3ccnc4cc(OC)c(OC)cc34)cn2)n1 [Compound 14] | < 500 nM | < 1000 nM

The next lines start with results.

Row | IC50 (CSF1R) | SMILES | IC50 (CSF1R (M-NFS-60 cells))
22 | ≥ 1000 nM | COCCn1cc(OCC(F)(F)F)c(C(=O)Nc2ccc(Oc3ccnc4cc(OC)c(OC)cc34)cc2F)n1 [Compound 49] | 1000 to 10000 nM
23 | 500 to 1000 nM | COc1cc2nccc(Oc3ccc(NC(=O)c4nn(C5CCCC5)cc4OCC(F)(F)F)cc3C)c2cc1OC [Compound 57] | < 1000 nM
24 | ≥ 1000 nM | CCCn1cc(OCC(F)(F)F)c(C(=O)Nc2ccc(Oc3ccnc4cc(OC)c(OC)cc34)cc2C)n1 [Compound 27] | 1000 to 10000 nM
25 | < 500 nM | COc1cc2nccc(Oc3ccc(NC(=O)c4nn(CCCN)cc4OCC(F)(F)F)nc3)c2cc1OC [Compound 68] | 1000 to 10000 nM
26 | < 500 nM | COc1cc2nccc(Oc3ccc(NC(=O)c4nn(CCC#N)cc4OCC(F)(F)F)nc3)c2cc1OC [Compound 39] | < 1000 nM
27 | < 500 nM | CCCn1cc(NCC(F)(F)F)c(C(=O)Nc2ccc(Oc3ccnc4cc(OC)c(OC)cc34)cn2)n1 [Compound 23] | < 1000 nM
28 | ≥ 1000 nM | CCCn1cc(OCC2CCC2)c(C(=O)Nc2ccc(Oc3ccnc4cc(OC)c(OC(F)(F)F)cc34)cn2)n1 [Compound 167] | 1000 to 10000 nM
29 | ≥ 1000 nM | CCCn1cc(OCCC(O)CO)c(C(=O)Nc2ccc(Oc3ccnc4cc(OC)c(OC)cc34)cn2)n1 (stereo not drawn) [Compound 15] | 1000 to 10000 nM
30 | < 500 nM | CCCn1cc(OCC(F)(F)F)c(C(=O)Nc2ccc(Oc3ccnc4cc(OC)c(OC)cc34)nn2)n1 [Compound 32] | 1000 to 10000 nM
31 | 500 to 1000 nM | CCCn1cc(OCC(F)(F)F)c(C(=O)Nc2ccc(Oc3ccnc4cc(OC)c(OC)cc34)cc2F)n1 [Compound 28] | 1000 to 10000 nM
32 | < 500 nM | COc1cc2nccc(Oc3ccc(NC(=O)c4nn(C5CC5)cc4OCCC(F)(F)F)nc3)c2cc1OC [Compound 170] | < 1000 nM
33 | ≥ 1000 nM | COc1cc2nccc(Oc3ccc(NC(=O)c4nn(CCC(F)(F)F)cc4OCC4CCC4)nc3)c2cc1OC [Compound 166] | 1000 to 10000 nM
34 | 500 to 1000 nM | COc1cc2nccc(Oc3ccc(NC(=O)c4nn(CC(C)C)cc4OCC(F)(F)F)cc3F)c2cc1OC [Compound 53] | < 1000 nM
35 | < 500 nM | COc1cc2nccc(Oc3ccc(NC(=O)c4nn(C5CCCCC5)cc4OCC(F)(F)F)nc3)c2cc1OC [Compound 69] | 1000 to 10000 nM
36 | < 500 nM | COc1cc2nccc(Oc3ccc(NC(=O)c4nn(C5CC5)c(C(C)=O)c4OCC(F)(F)F)nc3)c2cc1OC [Compound 3] | ≥ 10000 nM
